Measurements: US20240093034A1, “FLUORESCENT DYES” (EXOPHARM LIMITED, priority 2020, published 2024)

Test system: MSC-EVs
Experiment: Dye labelling of MSC-EV preparations analysed by imaging flow cytometry (IFCM)
Experimental: MSC-EVs were prepared form human platelet lysate containing MSC-conditioned media by polyethylene glycol 6000 precipitation followed by ultracentrifugation, as described previously (Borger, V. et al, 2020, Scaled Isolation of Mesenchymal Stem/Stromal Cell-Derived Extracellular Vesicles. Curr Protoc Stem Cell Biol 55, e128; Kordelas et al., 2014, MSC-derived exosomes: a novel tool to treat therapy-refractory graft-versus-host disease. Leukemia 28, 970-973; Ludwig et al., 2018, Precipitation with polyethylene glycol followed by washing and pelleting by ultracentrifugation enriches extracellular vesicles from tissue culture supernatants in small and large scales. J Extracell Vesicles 7, 1528109). Conditioned media were harvested every 48 h. Obtained MSC-EV preparations were diluted in NaCl-HEPES buffer (Sigma-Aldrich, Taufkirchen, Germany) such that 1 mL of final samples contained the preparation yield of the conditioned media of approximately 4.0×10^7 cells.
The staining with CFSE (Thermo Fisher Scientific, Darmstadt, Germany) was based on the manufacturer's protocol. Slight modifications were required to reduce the signal from unbound CFSE. Briefly, the CFSE stock solution was diluted to a working solution of 10 μM CFSE. The solution was centrifuged three times for 10 min at 17,000 × g. Subsequently, 25 μL of MSC-EV preparations, corresponding to the amount of EVs derived from 1×10^6 MSCs, were incubated with the centrifuged CFSE solution for 20 min at 37° C. The sample was diluted 1:20 to a final volume of 1 mL prior to analysis.
The staining of MSC-EV preparations with Calcein AM followed the manufacturer's instructions. Briefly, 25 μL of MSC-EV preparations were incubated with 25 μL of a 20 μM solution of Calcein AM (Thermo Fisher Scientific) for 40 min at 37° C. The sample was diluted 1:20 to a final volume of 1 mL to reduce background noise, avoiding the requirement of a washing step.
The staining of MSC-EV preparations with BODIPY-TR-Ceramide followed the manufacturer's instructions. Briefly, 25 μL of the MSC-EV preparation, corresponding to EVs purified from […], were incubated with 25 μL of a 20 μM solution of BODIPY TR Ceramide (Thermo Fisher Scientific) for 20 min at 37° C. 450 μL of 0.9% NaCl with 10mM HEPES (0.9% NaCl, Melsungen, B. Braun; HEPES, Thermo Fisher Scientific) buffer was added and the EVs were washed by using a Centrifugal Concentrator (Vivaspin 500; Sartorius, Gottingen, Germany). The retentate was adjusted to 500 μL prior to analysis.
The staining of MSC-EV preparations with PKH67 followed the manufacturer's instructions for labeling EVs (Thermo Fisher Scientific). Briefly, using 200 μL of given MSC-EV preparations, corresponding to EVs purified from 8×10^6 cells, the solution was adjusted with Diluent C to a final volume of 1 mL. […]

## Calcein AM [reference compound]
IFCM, with anti-CD9, anti-CD63, anti-CD81 counterstaining where done
  labelling of sEVs in MSC-EV preparations (conclusion): do not Label
Dye + MSC-EVs
  labelled objects in MSC-EV preparations (FIG. 8): failed to label any detectable objects
